Laboratory results: US12319664B2, “Herbicidally active 3-phenylisoxazoline-5-carboxamides of cyclopentenylcarboxylic acid derivatives” (Bayer Aktiengesellschaft, priority 2018, dated 2025)

Experiments:
SETVI = assay: Post-emergence herbicidal action against SETVI; type: in vivo, Setaria viridis; details: application rate 80 g/ha, rated visually after about 3 weeks
Summary of the method: (§1)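 Post-emergence spray, one-leaf stage; sandy loam, greenhouse; WP/EC in water + 0.5% additive, 600 l/ha; visual % damage vs untreated at ~3 wk (100% = dead).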

STEME = assay: Post-emergence herbicidal action against STEME; type: in vivo, Stellaria media; details: application rate 80 g/ha, rated visually about 3 weeks after treatment
Summary of the method: as §1

ABUTH = assay: Post-emergence herbicidal action against ABUTH; type: in vivo, Abutilon theophrasti; details: application rate 80 g/ha, rated visually about 3 weeks after treatment
Summary of the method: as §1

ECHCG = assay: Post-emergence herbicidal action against ECHCG; type: in vivo, Echinochloa crus-galli; details: application rate 80 g/ha, rated visually after about 3 weeks
Summary of the method: as §1

AVEFA = assay: Post-emergence herbicidal action against AVEFA; type: in vivo, Avena fatua; details: application rate 80 g/ha, rated visually after about 3 weeks
Summary of the method: as §1

AMARE = assay: Post-emergence herbicidal action against AMARE; type: in vivo, Amaranthus retroflexus; details: application rate 80 g/ha, rated visually about 3 weeks after treatment
Summary of the method: as §1

ALOMY = assay: Post-emergence herbicidal action against ALOMY; type: in vivo, Alopecurus myosuroides; details: application rate 80 g/ha, rated visually after about 3 weeks
Summary of the method: as §1

HORMU = assay: Post-emergence herbicidal action against HORMU; type: in vivo, Hordeum murinum; details: application rate 80 g/ha
Summary of the method: as §1

VIOTR = assay: Post-emergence herbicidal action against VIOTR; type: in vivo, Viola tricolor; details: application rate 80 g/ha, rated visually about 3 weeks after treatment
Description: (§2) [table] 2. Post-emergence herbicidal action against harmful plants and crop plant compatibility Seeds of monocotyledonous and dicotyledonous weeds and crop plants are placed in sandy loam in plastic or wood-fibre pots, covered with soil and cultivated in a greenhouse under controlled growth conditions. 2 to 3 weeks after sowing, the test plants are treated at the one-leaf stage. The compounds of the invention, formulated in the form of wettable powders (WP) or as emulsion concentrates (EC), are then sprayed onto the green parts of the plants as aqueous suspension or emulsion with addition of 0.5% additive at a water application rate of 600 l/ha (converted). After the test plants have been kept in the greenhouse under optimum growth conditions for about 3 weeks, the activity of the preparations is rated visually in comparison to untreated controls. For example, 100% activity=the plants have died, 0% activity=like control plants.

VERPE = assay: Post-emergence herbicidal action against VERPE; type: in vivo, Veronica persica; details: application rate 80 g/ha
Summary of the method: as §1

POLCO = assay: Post-emergence herbicidal action against POLCO; type: in vivo, Polygonum convolvulus; details: application rate 80 g/ha, rated visually about 3 weeks after treatment
Summary of the method: as §1

LOLRI = assay: Post-emergence herbicidal action against LOLRI; type: in vivo, Lolium rigidum; details: application rate 80 g/ha, rated visually after about 3 weeks
Summary of the method: as §1

PHBPU = assay: Post-emergence herbicidal action against PHBPU; type: in vivo, Pharbitis purpurea; details: application rate 80 g/ha, rated visually about 3 weeks after treatment
Description: as §2

SMILES	Herbicidal action against [%] SETVI (SETVI)	Herbicidal action against [%] STEME (STEME)	Herbicidal action against [%] ABUTH (ABUTH)	Herbicidal action against [%] ECHCG (ECHCG)	Herbicidal action against [%] AVEFA (AVEFA)	Herbicidal action against [%] AMARE (AMARE)	Herbicidal action against [%] ALOMY (ALOMY)	Herbicidal action against [%] HORMU (HORMU)	Herbicidal action against [%] VIOTR (VIOTR)	Herbicidal action against [%] VERPE (VERPE)	Herbicidal action against [%] POLCO (POLCO)	Herbicidal action against [%] LOLRI (LOLRI)	Herbicidal action against [%] PHBPU (PHBPU)
CCOC(=O)C1C=CC(NC(=O)C2(C(F)(F)F)CC(c3cccc(C#N)c3)=NO2)C1 (mixture of isomers) [Example I-072]	80%	80%	80%	90%	100%	80%	90%	90%	80%	80%	90%	90%	–
COc1cc(OC)cc(C2=NOC(C(=O)NC3C=CC(C(=O)OCC(F)(F)F)C3)(C(F)(F)F)C2)c1 (mixture of isomers) [Example I-052]	90%	80%	90%	80%	100%	90%	100%	100%	80%	80%	–	100%	80%
N#Cc1cc(F)cc(C2=NOC(C(=O)NC3C=CC(C(=O)OCCCl)C3)(C(F)(F)F)C2)c1 (mixture of isomers) [Example I-089]	80%	90%	90%	90%	100%	90%	100%	100%	90%	90%	90%	100%	–
CC(C)(C#N)NC(=O)C1C=CC(NC(=O)C2(C)CC(c3cc(F)cc(F)c3)=NO2)C1 (mixture of isomers) [II-10]	–	90%	–	90%	90%	80%	90%	–	90%	80%	90%	90%	90%
COC(=O)[C@@H]1C=C[C@H](NC(=O)C2(C(F)(F)F)CC(c3cc(F)cc(C#N)c3)=NO2)C1 (single isomer, unassigned) [Example I-097]	90%	80%	–	90%	90%	80%	100%	90%	80%	80%	80%	100%	80%
CC(C)C(C#N)NC(=O)C1C=CC(NC(=O)C2(C(F)(F)F)CC(c3cc(F)cc(F)c3)=NO2)C1 (mixture of isomers) [II-35]	80%	90%	80%	–	100%	90%	90%	80%	90%	90%	90%	90%	90%
CC1(C(=O)N[C@H]2CC=C(C(=O)OCc3ccccc3)C2)CC(c2cc(F)cc(F)c2)=NO1 (some centres unmarked) [III-12]	80%	80%	90%	–	100%	90%	100%	100%	90%	90%	90%	100%	90%
C=CC1(C(=O)NC2C=CC(C(=O)OC(C)(C)C)C2)CC(c2cc(F)cc(F)c2)=NO1 (mixture of isomers) [Example I-060]	–	–	–	90%	90%	80%	90%	90%	80%	–	–	–	80%
COC(=O)C(C)(C)NC(=O)C1C=CC(NC(=O)C2(C(F)(F)F)CC(c3cc(F)cc(F)c3)=NO2)C1 (mixture of isomers) [II-36]	–	–	–	–	100%	90%	90%	80%	90%	80%	90%	90%	90%
O=C(C1C=CC(NC(=O)C2(C(F)(F)F)CC(c3cc(F)cc(F)c3)=NO2)C1)N1CCCCO1 (mixture of isomers) [II-31]	80%	90%	90%	90%	100%	80%	90%	80%	90%	90%	90%	90%	–
COC(=O)C1=CC[C@H](NC(=O)C2(C)CC(c3cc(F)cc(F)c3)=NO2)C1 (some centres unmarked) [III-10]	90%	90%	90%	90%	100%	90%	100%	100%	90%	90%	–	100%	90%
COC(=O)C1C=CC(NC(=O)C2(C)CC(c3cccc(C#N)c3)=NO2)C1 (mixture of isomers) [Example I-080]	80%	90%	–	90%	100%	90%	90%	90%	80%	90%	90%	90%	90%
